# Assay results published in US8618068B2, “Methods and low dose regimens for treating red blood cell disorders” (priority 2009, dated 2013).
# Legend:
# [1] = Immunotoxicology weight-of-evidence analysis, repeat dose dog study; format: in vivo, Beagle dog
# Source text: The immunotoxicological potential of DMB has been evaluated by a weight-of-evidence analysis of the data generated in the repeat dose Sprague Dawley rat and Beagle dog studies. In both studies, there were no effects of treatment on WBC levels or lymph node histopathology, which are predictive of potential immunotoxicity.
# absolute reticulocytes = assay: Phase 1 repeat-dose clinical study, absolute reticulocytes; format: in vivo, human
# Protocol: Mean absolute reticulocytes (10^9 cells/L) in the placebo group at baseline and Day 27 were 51+/−12 and 62+/−20, respectively, which was not statistically significant (p=0.19). Mean absolute reticulocytes increased on average from 50% to 60% above the mean baseline values in the subjects who received study medication. For example, at baseline in Cohort 1 (5 mg/kg, fasted) mean absolute reticulocytes were 50+/−12 and mean peak reticulocytes were 81+/−24, (p=0.02); in Cohort 4 (10 mg/kg) mean baseline reticulocytes were 58+/−8 and mean peak reticulocytes were 84+/−14, (p=0.003), and in Cohort 5 (15 mg/kg; fed), the mean baseline was 46+/−11 and mean peak level was 72+/−11, a 50% increase (p=0.001).
# fetal hemoglobin (HbF) = assay: Phase 2 trial in thalassemia intermedia patients, HbF and total hemoglobin; format: in vivo, human
# Protocol: A randomized, doubled blind, placebo-controlled, multiple ascending dose Phase I/II trial was conducted in 21 adult patients with beta thalassemia intermedia, including 14 patients with HbE/β^0 thalassemia from Thailand and 7 patients with β^+/β^0 thalassemia (including 12 different beta globin gene mutations). Study medication was taken as a single daily dose of DMB for 8 weeks followed minimally by a 4 week break and follow-up period. Four ascending dose levels (10, 20, 30, and 40 mg/kg/day) were sequentially evaluated in 4 dose level cohorts after the preceding dose and schedule were determined safe by an independent and unblinded Safety Monitoring Committee.
# All treatment groups had two placebo patients; placebo patients in the first dose group were randomized to treatment in the second dose group. Ten patients in Thailand (all HbE type) were treated with 10 mg/kg (8 active/2 placebo) followed by eight patients in Thailand who were treated followed by 30 mg/kg (6 active/2 placebo). Eleven patients (4 That, 7 Lebanese) were treated with 20 mg/kg followed by 40 mg/kg (9 active [6 Lebanese/3 That]/2 placebo). Patients ranged in age from 17 to 49 with a median age of 31 and were comprised for 16 females and 5 males.
# Patients were monitored every 2 weeks for laboratory studies, physical examinations, and adverse events. Further, patients were followed for hematologic parameters primarily focusing on hemoglobin and fetal hemoglobin (HbF). In addition, pharmacokinetic samples were obtained on Day 0 and 13, at pre-dose and 2, 4, 6, 8, 12, and 24 hours post-dosing. Hemoglobin was measured at each site using standard hematology equipment. HbF was measured using Varian HPLC. […] Adverse events in treated subjects included headache, upper respiratory infection, pyrexia, fatigue, nausea, and dizziness, but the rates of such events were not markedly different from those observed in the placebo-treated subjects.
# γ-globin mRNA = γ-globin mRNA in μLCR-human Aγ-globin transgenic mice; format: in vivo; conditions: after treatment with DMB
# Source text: Transgenic mice containing the human β globin gene locus in a yeast artificial chromosome (βYAC) displaying the correct developmental regulation of ε-, γ-, and β-globin genes (with a silenced y-globin gene in the adult stage) were used to study the effects of DMB on γ-globin induction and erythroid cell production. In the μLCR-human A γ-globin transgenic mice, the y-globin mRNA expression relative to murine α-globin mRNA was increased by a mean of 1.8-fold above the baseline after treatment with DMB. In the βYAC transgenic mice at intraperitoneal (IP) doses of 500 mg/kg/day, DMB induced a 2-fold increase in human γ-globin mRNA synthesis relative to that of total non-α-globin. This level of induction was similar to that seen with 1,000 mg/kg/day of butyrate, and the changes were observed from 3 days after treatment initiation and persisted until 3 to 5 days after treatment termination.
# clinical = conditions: human, in vivo
# Protocol: The first clinical study was a phase 1, double-blind, placebo-controlled, single dose study of the tolerability, safety and pharmacokinetics of DMB in 32 healthy volunteers. Healthy, fasting adult volunteers received single oral doses of DMB or placebo capsules at one of four dose levels (2 mg/kg, 5 mg/kg, 10 mg/kg and 20 mg/kg). Six subjects received study drug (24 subjects total) and 2 subjects received placebo at each dose level. The 8 placebo subjects received a capsule containing only the excipients from the capsules containing the active agent. Subjects at the 20 mg/kg also received a second dose of study drug after a defined meal, one week following the fasting dose.
# DMB was rapidly absorbed after oral administration, with peak concentrations of DMB occurring at 0.5 to 3 hours after dosing, followed by a mono-exponential decay phase, consistent with linear pharmacokinetics (FIG. 7; FIG. 8). Inter-subject variability in the primary PK parameters appears to be low, especially at higher doses.
compound,measurement,setting,value
"CCC(C)(C)C(=O)[O-].[Na+] [DMB, Sodium 2,2-dimethylbutyrate]",effects on WBC levels or lymph node histopathology,[1],no effects
same,mean peak reticulocytes,"absolute reticulocytes; Cohort 1 (5 mg/kg, fasted), baseline 50+/−12, p=0.02",81+/−24 10^9 cells/L
same,mean peak reticulocytes,"absolute reticulocytes; Cohort 4 (10 mg/kg), baseline 58+/−8, p=0.003",84+/−14 10^9 cells/L
same,"increase of reticulocytes, baseline to peak",absolute reticulocytes; Cohort 5 (15 mg/kg; fed),50%
same,mean peak reticulocytes,"absolute reticulocytes; Cohort 5 (15 mg/kg; fed), baseline 46+/−11, p=0.001",72+/−11 10^9 cells/L
same,patients in whom total hemoglobin increased,fetal hemoglobin (HbF); 20 mg/kg group,2 out of 9
same,dose level with the largest increase in HbF,fetal hemoglobin (HbF); Day 55,20 mg/kg
same,change in HbF at Day 55,"fetal hemoglobin (HbF); all 4 DMB dose groups, compared to minimal change in placebo",median increases
same,Median change from baseline to Day 55 in total hemoglobin,fetal hemoglobin (HbF); all groups including placebo,decreases
same,"γ-globin mRNA expression relative to murine α-globin mRNA, mean increase above baseline",γ-globin mRNA,1.8 fold
same,CL/F,clinical,0.016 to 0.062 L/h/kg
same,Vd,clinical,0.204 to 0.426 L/kg
same,doses achieving biologically active plasma drug levels,clinical,≥ 10 mg/kg
same,half-life,clinical,5.5 to 11.6 h
same,AUC(0-inf),clinical; 2 mg/kg,38 ± 23 µg·h/mL
same,AUC,clinical; 5 mg/kg,38.3 µg·h/mL
same,AUC(0-inf),clinical; 5 mg/kg,320 ± 40 µg·h/mL
same,AUC(0-inf),clinical; 10 mg/kg,538 ± 125 µg·h/mL
same,AUC,clinical; 20 mg/kg,1190 µg·h/mL
same,AUC(0-inf),clinical; 20 mg/kg,1190 ± 243 µg·h/mL
same,effect of food on AUCINF,clinical; 20 mg/kg,no effects were observed
same,Cmax,"clinical; 20 mg/kg, mean Cmax",89 µg/mL
same,time of peak concentrations after dosing,clinical; po,0.5 to 3 h
